From patent US4035486A, “Medicament” (Centre d'Etudes Experimentales et Clinques de Physio …, priority 1974, dated 1977) come the findings set out here.

In experiment [1] the test system is sections of the cerebral cortex of a rat stimulated by KCl. Nature of the experiment: Action in vitro on consumption of oxygen, accumulation of lactic acid and consumption of glucose in rat cerebral cortex sections stimulated by KCl (Warburg technique, enzymatic determination). The conditions noted are these: for Accumulation of lactic acid / Consumption of glucose / Consumption of oxygen: rat cerebral cortex sections stimulated by KCl, 1 hour at 37°, ACh 2.7.10^-10 M, insulin 66.10^-4 U/I. The experiment is classed as cell-based. An excerpt: 1. The investigation, on sections of a rat's brain which have been stimulated by KCl, of the variations in the consumption of oxygen, the production of lactic acid and the consumption of glucose, by WARBURG's conventional technique, after which these sections are subjected to the action of guanosine, ACh or insulin or guanosine in association with ACh or insulin. I. Action in vitro of guanosine, alone or in association with acetylcholine or insulin, on the consumption of oxygen, the accumulation of lactic acid and the consumption of glucose in sections of the cerebral cortex of a rat which have been stimulated by KCl. The animals which are used are male Wistar Vag rats with an average weight of 225/250 grammes, and they have been subjected to standard laboratory regime. The sections of tissue, which weigh between 15 and 20 mg, were taken from the cerebral cortex of the rat and allowed to incubate for 1 hour at 37° after being placed in a flask containing the Krebs-Ringer phosphate buffer having a KCl concentration of 10 percent. The substrate comprises 15 μ moles of glucose. The guanosine, […], is added to the flask simultaneously with the glucose and the buffer, whereas the acetylcholine 2.7.10^^-10 M and the insulin (Endopancrine) 66.10^-^4 μ/liter are placed in the lateral paunch and put into contact with the section of tissue at a time 0. The total volume of the mixture is 3 mls. The consumption of oxygen is measured according to Warburg's conventional method after a 1-hour period of incubation at 37°. It is expressed in μ moles of oxygen per hour and per gramme of tissue. The lactic acid and glucose are determined in the deproteinised incubation medium by an enzymatic method. The results are expressed in μ moles/h/g of tissue.

In experiment [2] the test system is glycogen of the mouse brain. Nature of the experiment: Cerebral glycogen in a mouse after injection of guanosine, insulin or both. The experiment is classed as in vivo. The settings on record: for glycogen of the mouse brain: 30 minutes before killing; for level of cerebral glycogen compared with the controls (in words): mouse, guanosine 100 mg/kg or 200 mg/kg, insulin 0.5 I.U./20 g, or insulin with guanosine 200 mg/kg. As to the method:
2. The investigation of the content of glycogen in the brain of a mouse under the action of quanosine or insulin or these two agents in association. The animals which are used are male mice with an average weight of 20-25 g. Five groups of animals were studied which had received respectively: 1st group: a isotonic salt solution by intraperitoneal injection. 2nd group: a dose of 100 mg/kg of guanosine by intraperitoneal injection. 3rd group: a dose of 200 mg/kg of guanosine by intraperitoneal injection. 4th group: a dose of 0.5 μI/20 g per mouse of insulin by subcutaneous injection. For these four groups the injection was made 30 minutes before the animals were killed. 5th group: an intraperitoneal injection of guanosine at a dose of 200 mg/kg 30 minutes before a sub-cutaneous injection of insulin at a dose of 0.5 μI/20 g per mouse. The animal is killed 30 minutes after the second injection by being totally immersed in liquid nitrogen. The brains are removed whilst they are still deep-frozen. The isolated glycogen is hydrolyzed by the enzyme amylo-α-1,4 -α-1,6 glucosidase which releases the glucose by hydrolysis of the α-(1 → 6) and α-(→ 4) bonds. The glucose is then converted, in a single stage, to 6-phosphogluconate by the enzymes : hexokinase and glucose-6-phosphate dehydrogenase. The formation of the nicotinamide adenine dinucleotide phosphate is then measured florometrically (NAHORSKI and ROGERS, Analyt. Biochem. 1972, 49, 492-497).

A further experiment deals with glycemia. Nature of the experiment: Action of guanosine upon glycemia in the rabbit after intravenous injection. The settings on record: insulin 0.5 I.U. per kg alone or with guanosine 100 mg per kg, followed to 240 min. The experiment is classed as in vivo. As to the method:
3. The study of the variations in glycemia in a rabbit after an injection of either insulin or insulin in association with guanosine.
The animals which are used are male rabbits with a weight of 2.200 kg to 2.500 kg.
Four groups of animals were studied which had received by intravenous injection, respectively, in a volume of 10 ml:
1st group: an isotonic solution of sodium chloride.
2nd group: guanosine at the rate of 100 mg per kg of rabbit.
3rd group: insulin at the rate of 0.5 I.U. per kg of rabbit.
4th group: guanosine at the rate of 100 mg per kg of rabbit and insulin at the rate of 0.5 I.U. per kg of rabbit.
A catheter is inserted into the femoral artery, its distal end being joined to the skin in the caudal region, such that the blood may be removed without harming the rabbit.
The drugs were injected via a vein in the ear. The guanosine was dissolved in an isotonic sodium chloride solution to which 1.5% NaOH was added until the guanosine has been dissolved. The pH of the final solution was 9.
After the inspection the rabbits were given 30 minutes rest.
Arterial blood was removed on six occasions at the times t = 0 min; t = 15 min; t = 30 min; t = 60 min; t = 120 min; t = 240 min.
The glycemia values were determined by the enzymatic method of BOEHRINGER.

For `CC(=O)OCC[N+](C)(C)C` [ACh, acetylcholine, reference compound], in experiment [1] (acetylcholine 2.7.10^-10 M, alone or with guanosine, rat cerebral cortex sections), the “increase in the consumption of oxygen” value came out at 25%. In experiment [1] (guanosine 1.66.10^-4 M), this compound showed an Accumulation of lactic acid of 98.8 ± 3.7 µmol/h/g, a Consumption of glucose of 146 ± 13.9 µmol/h/g and a Consumption of oxygen of 134 ± 7.2 µmol/h/g.
On to `Nc1nc2c(ncn2[C@@H]2O[C@H](CO)[C@@H](O)[C@H]2O)c(=O)[nH]1` [Guanosine, guanosine], for which, in experiment [1] (guanosine 1.66.10^-4 M), the Accumulation of lactic acid was found to be 88.2 ± 5.4 µmol/h/g, the Consumption of glucose was determined as 99.3 ± 9.1 µmol/h/g and the Consumption of oxygen was 93 ± 6 µmol/h/g. Further, the “effect upon the accumulation of lactic acid (in words)” value in experiment [1] (rat cerebral cortex sections, guanosine 1.66.10^-4 M) was “has no effect”. The “effect upon the consumption of glucose (in words)” value in experiment [1] (rat cerebral cortex sections, guanosine 1.66.10^-4 M, acetylcholine 2.7.10^-10 M) is given as “has no effect”. Besides, the “effect upon the consumption of oxygen (in words)” value in experiment [1] (rat cerebral cortex sections, guanosine 1.66.10^-4 M, acetylcholine 2.7.10^-10 M, insulin 66.10^-4 μ/liter) is reported as “has no effect”. The “glycogen of the mouse brain” value in experiment [2] (guanosine 100 mg/kg intraperitoneal) is recorded as 151 ± 7 μ g of glucose equivalents per. The “glycogen of the mouse brain” value in experiment [2] (guanosine 200 mg/kg intraperitoneal) is reported as 159 ± 8 μ g of glucose equivalents per. For the same compound, in experiment [2], the “level of cerebral glycogen compared with the controls (in words)” value is recorded as “do not show any significant differences”.
Take insulin: the “increase in the consumption of glucose” value in experiment [1] (insulin 66.10^-4 μ/liter, alone or with guanosine, rat cerebral cortex sections) came to 50%. In experiment [1] (guanosine 1.66.10^-4 M), this compound had an Accumulation of lactic acid of 84.6 ± 5 µmol/h/g, a Consumption of glucose of 168 ± 17 µmol/h/g and a Consumption of oxygen of 91.6 ± 5.3 µmol/h/g. The “glycogen of the mouse brain” value in experiment [2] (insulin 0.5 I.U./20 g mouse subcutaneous) is 182 ± 10 μ g of glucose equivalents per. Besides, the “level of cerebral glycogen compared with the controls (in words)” value in experiment [2] is recorded as “very much higher than that of the controls”. The “return of the glycemia to its original level (in words)” value in the experiment with glycemia is on record as “quickly returns to its original level”.
